Measured values reported in publication PMC7948490, “Mechanochemical properties of human myosin-1C are modulated by isoform-specific differences in the N-terminal extension” (The Journal of Biological Chemistry, 2020).

Key:
[1] = biological target: T1, Myo1C^35-ΔTH1 (acto·Myo1C^35-ΔTH1) (Homo sapiens, UniProt O00159); assay: stopped-flow, ADP inhibition of ATP-induced dissociation from pyrene-labeled F-actin, slow-phase amplitude fraction; format: binding
T1 construct: 35-residue N-terminal extension + motor domain + 3 IQ motifs + post-IQ; C-terminal 176-residue TH1 domain replaced by C-terminal octa-histidine tag; coproduced with human calmodulin in baculovirus/Sf9; with Calmodulin-1; Actin, alpha skeletal muscle (Gallus gallus, chicken pectoralis major muscle F-actin, pyrene-labeled)
T1 sequence (O00159 1-887, stated change not applied): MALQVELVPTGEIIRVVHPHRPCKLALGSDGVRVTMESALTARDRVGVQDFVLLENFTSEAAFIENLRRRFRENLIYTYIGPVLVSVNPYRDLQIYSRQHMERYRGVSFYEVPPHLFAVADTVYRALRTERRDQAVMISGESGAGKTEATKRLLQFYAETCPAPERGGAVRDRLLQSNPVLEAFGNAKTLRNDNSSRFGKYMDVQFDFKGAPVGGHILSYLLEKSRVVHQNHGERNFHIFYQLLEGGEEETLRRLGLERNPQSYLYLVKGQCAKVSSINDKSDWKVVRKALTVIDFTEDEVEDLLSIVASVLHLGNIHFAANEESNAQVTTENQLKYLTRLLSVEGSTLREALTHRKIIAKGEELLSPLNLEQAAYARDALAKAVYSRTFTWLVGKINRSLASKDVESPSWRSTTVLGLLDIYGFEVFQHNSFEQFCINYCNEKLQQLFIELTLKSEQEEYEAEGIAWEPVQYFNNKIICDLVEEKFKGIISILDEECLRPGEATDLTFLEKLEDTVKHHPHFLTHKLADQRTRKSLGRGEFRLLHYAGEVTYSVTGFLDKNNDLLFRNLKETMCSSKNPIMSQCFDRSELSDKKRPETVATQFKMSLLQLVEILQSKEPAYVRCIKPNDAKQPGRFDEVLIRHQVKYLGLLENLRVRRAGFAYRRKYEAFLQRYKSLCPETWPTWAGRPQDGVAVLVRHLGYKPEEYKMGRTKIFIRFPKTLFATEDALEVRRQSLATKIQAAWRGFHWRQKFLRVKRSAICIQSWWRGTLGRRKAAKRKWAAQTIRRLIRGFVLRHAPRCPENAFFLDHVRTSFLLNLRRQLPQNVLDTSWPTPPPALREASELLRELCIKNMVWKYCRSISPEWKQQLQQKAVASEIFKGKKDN
From the text: stopped-flow, ADP inhibition of ATP-induced dissociation from pyrene-labeled F-actin, slow-phase amplitude fraction on Myo1C^35-ΔTH1 (acto·Myo1C^35-ΔTH1)

[2] = biological target: T1, Myo1C^35-ΔTH1 (acto·Myo1C^35-ΔTH1); assay: stopped-flow, ATP-induced dissociation from pyrene-labeled F-actin, fast phase; format: binding
From the text: stopped-flow, ATP-induced dissociation from pyrene-labeled F-actin, fast phase on Myo1C^35-ΔTH1 (acto·Myo1C^35-ΔTH1)

| Kd [1] [µM] | Kd [2] [µM] | SMILES |
| --- | --- | --- |
| 0.23 ± 0.03 | – | Nc1ncnc2c1ncn2[C@@H]1O[C@H](COP(=O)(O)OP(=O)(O)O)[C@@H](O)[C@H]1O [ADP] |
| – | 405 ± 79 | Nc1ncnc2c1ncn2[C@@H]1O[C@H](COP(=O)(O)OP(=O)(O)OP(=O)(O)O)[C@@H](O)[C@H]1O [ATP] |
